Target: T1, 5-HT3 receptor (Rattus norvegicus, UniProt P35563)
T1 construct: Brain cortices are obtained from male rats and a membrane fraction prepared by standard techniques; from tissue; host or cells: male rat brain cortex, membrane fraction
T1 sequence (P35563 24-483): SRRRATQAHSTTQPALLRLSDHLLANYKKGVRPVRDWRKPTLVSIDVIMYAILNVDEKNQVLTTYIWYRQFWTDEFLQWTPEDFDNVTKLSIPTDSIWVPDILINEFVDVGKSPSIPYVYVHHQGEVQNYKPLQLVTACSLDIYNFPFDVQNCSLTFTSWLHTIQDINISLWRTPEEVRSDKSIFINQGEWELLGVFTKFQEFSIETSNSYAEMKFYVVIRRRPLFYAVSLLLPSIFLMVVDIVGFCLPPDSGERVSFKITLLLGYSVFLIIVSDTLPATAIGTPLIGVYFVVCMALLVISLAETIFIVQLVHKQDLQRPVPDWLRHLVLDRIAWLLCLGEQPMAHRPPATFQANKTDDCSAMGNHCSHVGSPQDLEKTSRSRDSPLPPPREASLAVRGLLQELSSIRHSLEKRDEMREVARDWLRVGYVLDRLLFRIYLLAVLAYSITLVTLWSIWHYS
Assay: Serotonin (5-HT3) radioligand receptor binding assay, [3H]-GR65630
Procedure: 5-HT3 antagonism can be determined by the radioligand receptor binding assay as described herein and in the in vivo Bezold-Jarisch reflex procedure.
GR65630 binds to the 5-HT3 receptor. Brain cortices are obtained from male rats and a membrane fraction prepared by standard techniques. 0.04 mg of membrane prep is incubated with 0.2 nM [^3 H]-GR656630 for 60 minutes at 22° C. […] Membranes are filtered and washed 3 times and the filters are counted to determine [3H]-GR65630 specifically bound.*
*Literature References: Kilpatrick GJ, Jones BJ and Tyers MG. Identification and distribution of 5-HT3 receptors in rat brain using radioligand binding. Nature, 330 : 746-748, 1987.

Cc1nc[nH]c1CCC(=O)c1cn(C)c2ccccc12 [GR65630]
Kd: 2.46 nM
% Specific Binding ([3H]-GR65630, non-specific binding in the presence of 1 uM ICS 205-930): 70%

c1ccc2nc(N3CCNCC3)ccc2c1 [Quipazine]
IC50: 0.5 nM
Ki: 0.18 nM

COc1ccc2[nH]cc(C3=CCNCC3)c2c1 [RU24969]
IC50: 320 nM
Ki: 1850 nM

COc1cc(N)c(Cl)cc1C(=O)NC1CN2CCC1CC2 (centres unmarked) [Zacopride]
IC50: 0.55 nM
Ki: 0.18 nM
